We go through two molecules from patent US7981878B2, “Tumor treatment with gliotoxin derivatives” (priority 2005, dated 2011).

For experiment [1], the system named is K 562, U 937, HCT-15, HCT-116, SW946, LX-1, P 388, colon-26 cell lines. To be noted: as indicated in EP 926 242 A1; cited from earlier work.
Another experiment has as its system Notch2 (N2^IC). The experiment is described as follows: Nuclear Notch2 activity in B-CLL cells by EMSA (band shift assay). To be noted: B-CLL cell cultures incubated with 50 nM Dapt. In kind it is cell-based, human. As for the experimental part:
FIG. 3: Gliotoxin is a potent Notch2 trans-activation inhibitor in B-CLL cells. (A) EMSA showing the inhibition of DNA-bound Notch2IC complexes in the presence of 0.2 μg Gliotoxin. B-CLL samples (n=10) were cultured in the presence of 1 ng/ml TPA with or without 0.2 μM Gliotoxin for 24 hours. Nuclear extracts were subjected to EMSA using a oligonucleotide probe spanning a well defined CBF1/NotchIC binding site derived from the CD23a promoter. (B). Corresponding FACS analysis (plus 10 additional B-CLL samples) showing the downregulation of the Notch2 target gene CD23 as well as the induction of apoptosis of Gliotoxin treated B-CLL samples. Columnes represent the percentage of CD19^+CD23^+ (grey bars) and apoptotic cells (black bars: including early apoptotic cells single positive for AnnexinV, and late apoptotic cells double positive for AnnexinV and probidium iodide), respectively.
As drug screening model, a cell culture system was established which conserves the phenotype of freshly isolated B-CLL cells (3×10^6 B-CLL cells/ml RPMI medium+10% FCS, supplemented with 1 ng/ml of TPA). Notch2 activity in the cell nucleus is determined by means of EMSA (electrophoretic mobility shift assay) experiments, and the cell viability (Probidium iodide/annexinV) and CD23 expression (Notch2 target gene) is determined by means of FACS (flow cytometry) analyses, respectively. […]

For the next experiment, the target named is γ-secretase. The following applies: γ-secretase inhibitor; cited from earlier work.

As to acetylgliotoxin, in experiment [1], the “efficacy against tumour cell lines” value is given as “effective”.

As usually defined, the IC50 is the concentration that inhibits the measured activity by half. Regarding `C[C@H](NC(=O)Cc1cc(F)cc(F)c1)C(=O)N[C@H](C(=O)OC(C)(C)C)c1ccccc1` [Dapt, reference compound], the “influence on the activity of N2^IC” value in the experiment with Notch2 (N2^IC) is “no influence”. At γ-secretase, the 50% inhibitory concentration (IC50) is 5 to 10 nM.
